Experimental data: patent publication US10093683B2, “Factor XIa inhibitors” (Merck Sharp & Dohme Corp., priority 2014, dated 2018)

Assays:
Human plasma kallikrein = Human plasma kallikrein (Homo sapiens (Human), UniProt P03952); experiment: Kallikrein Assay; format: biochemical; conditions: purified Human plasma kallikrein 0.5 nM, Acetyl-K-P-R-AFC, pH 7.4; Ki from IC50 by Cheng Prusoff
Protocol: The effectiveness of a compound of the present invention as an inhibitor of Kallikrein can be determined using a relevant purified serine protease, and an appropriate synthetic substrate. The rate of hydrolysis of the chromogenic or fluorogenic substrate by the relevant serine protease was measured both in the absence and presence of compounds of the present invention. Assays were conducted at room temperature or at 37° C. […] A decrease in the rate of fluorescence change in the presence of inhibitor is indicative of enzyme inhibition. Such methods are known to one skilled in the art. The results of this assay are expressed as the inhibitory constant, Ki.
Kallikrein determinations were made in 50 mM HEPES buffer at pH 7.4 containing 150 mM NaCl, 5 mM CaCl2, and 0.1% PEG 8000 (polyethylene glycol; Fisher Scientific). Determinations were made using purified Human plasma kallikrein at a final concentration of 0.5 nM (Enzyme Research Laboratories) and the synthetic substrate, Acetyl-K-P-R-AFC (Sigma #C6608) at a concentration of […].
Times required to achieve equilibration between enzyme and inhibitor were determined in control experiments. The reactions were performed under linear progress curve conditions and fluorescence increase measured at 405 Ex/510 Em nm. […] IC50 was determined by inflection point from a four parameter logistic curve fit. Ki was calculated using the Cheng Prusoff equation, Ki=IC50/(1+([S]/Km)).

human Factor XIa = human Factor XIa (Homo sapiens (Human), UniProt P03951); experiment: Factor XIa Assay; format: biochemical; conditions: purified human Factor XIa 40 pM, Z-Gly-Pro-Arg-AFC 100 μM, pH 7.4; read-out: FXIa Ki
In short: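 Purified human FXIa (40 pM final) hydrolysing fluorogenic Z-Gly-Pro-Arg-AFC (100 μM) in 50 mM HEPES pH 7.4, 150 mM NaCl, 5 mM CaCl2, 0.1% PEG 8000, at room temperature or 37° C. Initial velocities measured after enzyme–inhibitor equilibration; Ki from Vo/Vi versus [I], assuming competitive inhibition.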

Human plasma kallikrein, sequence (P03952 391-638): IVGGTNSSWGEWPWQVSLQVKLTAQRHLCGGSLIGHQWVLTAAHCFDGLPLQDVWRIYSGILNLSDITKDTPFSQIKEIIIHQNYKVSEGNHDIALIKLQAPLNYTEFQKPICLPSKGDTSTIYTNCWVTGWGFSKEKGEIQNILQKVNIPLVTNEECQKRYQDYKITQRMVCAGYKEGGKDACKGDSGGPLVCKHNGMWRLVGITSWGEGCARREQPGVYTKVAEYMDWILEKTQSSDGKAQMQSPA
Human plasma kallikrein, sequence (P03952 20-390 partner): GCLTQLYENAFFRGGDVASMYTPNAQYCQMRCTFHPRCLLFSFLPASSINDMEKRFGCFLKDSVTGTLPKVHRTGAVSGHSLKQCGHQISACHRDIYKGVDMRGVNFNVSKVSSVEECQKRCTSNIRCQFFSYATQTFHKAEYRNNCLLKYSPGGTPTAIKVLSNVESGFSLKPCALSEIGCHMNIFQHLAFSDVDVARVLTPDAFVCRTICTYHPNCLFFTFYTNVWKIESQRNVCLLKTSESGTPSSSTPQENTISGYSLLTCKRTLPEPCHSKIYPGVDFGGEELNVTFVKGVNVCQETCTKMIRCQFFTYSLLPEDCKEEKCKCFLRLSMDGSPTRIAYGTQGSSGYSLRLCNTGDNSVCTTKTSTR
human Factor XIa, sequence (P03951 388-625): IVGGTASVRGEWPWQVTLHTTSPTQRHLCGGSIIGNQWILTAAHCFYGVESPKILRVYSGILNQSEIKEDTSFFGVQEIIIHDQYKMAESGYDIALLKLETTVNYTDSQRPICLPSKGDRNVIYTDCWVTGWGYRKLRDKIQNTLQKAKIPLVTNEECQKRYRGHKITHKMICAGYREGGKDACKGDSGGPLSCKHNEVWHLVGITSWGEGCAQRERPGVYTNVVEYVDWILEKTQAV
human Factor XIa, sequence (P03951 19-387 partner): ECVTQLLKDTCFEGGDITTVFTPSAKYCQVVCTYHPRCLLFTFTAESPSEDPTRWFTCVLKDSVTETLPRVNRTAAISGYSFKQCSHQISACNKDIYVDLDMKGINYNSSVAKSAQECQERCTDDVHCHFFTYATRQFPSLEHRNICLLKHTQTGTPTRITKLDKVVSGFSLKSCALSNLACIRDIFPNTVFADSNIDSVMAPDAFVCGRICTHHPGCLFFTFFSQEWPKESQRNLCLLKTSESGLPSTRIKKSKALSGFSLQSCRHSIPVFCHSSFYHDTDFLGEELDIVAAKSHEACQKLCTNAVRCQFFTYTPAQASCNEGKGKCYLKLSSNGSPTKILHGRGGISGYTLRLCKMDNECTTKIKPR

| SMILES | Ki (Human plasma kallikrein) [nM] | Ki (human Factor XIa) [nM] |
| --- | --- | --- |
| COC(=O)Nc1ccc(C(=O)N[C@@H](Cc2ccc(F)c(F)c2)C(=O)N2CCC3(C2)OC(=O)Nc2ccc(Cl)cc23)cc1 (stereo partly drawn) [Example 27, methyl (4-(((2S)-1-(6-chloro-2-oxo-1,2-dihydrospiro[benzo[d][1,3]oxazine-4,3′-pyrrolidin]-1′-yl)-3-(3,4-difluorophenyl)-1-oxopropan-2-yl)carbamoyl)phenyl)carbamate] | 32.6 | 14.3 |
| COC(=O)Nc1ccc(C(=O)N[C@@H](Cc2ccsc2)C(=O)N2CCC3(C2)OC(=O)Nc2ccc(Cl)cc23)cc1 (stereo partly drawn) [Example 32, methyl (4-(((2S)-1-(6-chloro-2-oxo-1,2-dihydrospiro[benzo[d][1,3]oxazine-4,3′-pyrrolidin]-1′-yl)-1-oxo-3-(thiophen-3-yl)propan-2-yl)carbamoyl)phenyl)carbamate] | 42.2 | 16 |
| COC(=O)Nc1ccc(C(=O)N[C@@H](CO)C(=O)N2CCC[C@@]3(C2)OC(=O)Nc2ccc(Cl)cc23)cc1 [Example 38, methyl (4-(((S)-1-((R)-6-chloro-2-oxo-1,2-dihydrospiro[benzo[d][1,3]oxazine-4,3′-piperidin]-1′-yl)-3-hydroxy-1-oxopropan-2-yl)carbamoyl)phenyl)carbamate] | 9.45 | 49.9 |
| COC(=O)Nc1ccc(C(=O)N[C@@H](Cc2cscn2)C(=O)N2CCC3(C2)OC(=O)Nc2ccc(Cl)cc23)cc1 (stereo partly drawn) [Example 40, methyl (4-(((2S)-1-(6-chloro-2-oxo-1,2-dihydrospiro[benzo[d][1,3]oxazine-4,3′-pyrrolidin]-1′-yl)-1-oxo-3-(thiazol-4-yl)propan-2-yl)carbamoyl)phenyl)carbamate] | 116 | 52.4 |
| COC(=O)Nc1ccc(C(=O)N[C@@H](Cc2ccc(OC3CCCC3)cc2)C(=O)N2CCC3(C2)OC(=O)Nc2ccc(Cl)cc23)cc1 (stereo partly drawn) [Example 44, methyl (4-(((2S)-1-(6-chloro-2-oxo-1,2-dihydrospiro[benzo[d][1,3]oxazine-4,3′-pyrrolidin]-1′-yl)-3-(4-(cyclopentyloxy)phenyl)-1-oxopropan-2-yl)carbamoyl)phenyl)carbamate] | < 1.3 | 70 |
| COC(=O)Nc1ccc(C(=O)N[C@@H](Cc2ccc(C(N)=O)cc2)C(=O)N2CCC[C@@]3(C2)OC(=O)Nc2ccc(Cl)cc23)cc1 [Example 47, methyl (4-(((S)-3-(4-carbamoylphenyl)-1-((R)-6-chloro-2-oxo-1,2-dihydrospiro[benzo[d][1,3]oxazine-4,3′-piperidin]-1′-yl)-1-oxopropan-2-yl)carbamoyl)phenyl)carbamate] | < 1.3 | 0.55 |
| COC(=O)Nc1ccc(C(=O)N[C@@H](Cc2ccc(NC(C)=O)cc2)C(=O)N2CCC[C@@]3(C2)OC(=O)Nc2ccc(Cl)cc23)cc1 [Example 48, methyl (4-(((S)-3-(4-acetamidophenyl)-1-((R)-6-chloro-2-oxo-1,2-dihydrospiro[benzo[d][1,3]oxazine-4,3′-piperidin]-1′-yl)-1-oxopropan-2-yl)carbamoyl)phenyl)carbamate] | 1.27 | 2.01 |
| COC(=O)Nc1ccc(C(=O)N[C@@H](Cc2ccc3ccccc3c2)C(=O)N2CCC3(C2)OC(=O)Nc2ccc(Cl)cc23)cc1 (stereo partly drawn) [Example 50, methyl (4-(((2S)-1-(6-chloro-2-oxo-1,2-dihydrospiro[benzo[d][1,3]oxazine-4,3′-pyrrolidin]-1′-yl)-3-(naphthalen-2-yl)-1-oxopropan-2-yl)carbamoyl)phenyl)carbamate] | 227 | 33.7 |
| COC(=O)Nc1ccc(C(=O)N[C@@H](Cc2cncn2C)C(=O)N2CCC[C@@]3(C2)OC(=O)Nc2ccc(Cl)cc23)cc1 [Example 53, methyl (4-(((S)-1-((R)-6-chloro-2-oxo-1,2-dihydrospiro[benzo[d][1,3]oxazine-4,3′-piperidin]-1′-yl)-3-(1-methyl-1H-imidazol-5-yl)-1-oxopropan-2-yl)carbamoyl)phenyl)carbamate] | 2.21 | 15.5 |

Results, then the compound that gave them:

| Ki (Human plasma kallikrein) [nM] | Ki (human Factor XIa) [nM] | SMILES |
| --- | --- | --- |
| 37 | 17.6 | COC(=O)Nc1ccc(C(=O)N[C@@H](Cc2cncn2C)C(=O)N2CCC3(C2)OC(=O)Nc2ccc(Cl)cc23)cc1 (stereo partly drawn) [Example 30, methyl (4-(((2S)-1-(6-chloro-2-oxo-1,2-dihydrospiro[benzo[d][1,3]oxazine-4,3′-pyrrolidin]-1′-yl)-3-(1-methyl-1H-imidazol-5-yl)-1-oxopropan-2-yl)carbamoyl)phenyl)carbamate] |
| 77.3 | 26 | COC(=O)Nc1ccc(C(=O)N[C@@H](Cn2cccn2)C(=O)N2CCC3(C2)OC(=O)Nc2ccc(Cl)cc23)cc1 (stereo partly drawn) [Example 31, methyl (4-(((2S)-1-(6-chloro-2-oxo-1,2-dihydrospiro[benzo[d][1,3]oxazine-4,3′-pyrrolidin]-1′-yl)-1-oxo-3-(1H-pyrazol-1-yl)propan-2-yl)carbamoyl)phenyl)carbamate] |
| 24.6 | 3.28 | COC(=O)Nc1ccc(C(=O)N[C@@H](Cc2ccc(O)cc2)C(=O)N2CCC3(C2)OC(=O)Nc2ccc(Cl)cc23)cc1 (stereo partly drawn) [Example 35, methyl (4-(((2S)-1-(6-chloro-2-oxo-1,2-dihydrospiro[benzo[d][1,3]oxazine-4,3′-pyrrolidin]-1′-yl)-3-(4-hydroxyphenyl)-1-oxopropan-2-yl)carbamoyl)phenyl)carbamate] |
| 2.68 | 9.21 | COCC[C@H](NC(=O)c1ccc(NC(=O)OC)cc1)C(=O)N1CCC[C@@]2(C1)OC(=O)Nc1ccc(Cl)cc12 [Example 37, methyl (4-(((S)-1-((R)-6-chloro-2-oxo-1,2-dihydrospiro[benzo[d][1,3]oxazine-4,3′-piperidin]-1′-yl)-4-methoxy-1-oxobutan-2-yl)carbamoyl)phenyl)carbamate] |
| 86.6 | 39.3 | COC(=O)Nc1ccc(C(=O)N[C@@H](Cc2ccc(C(=O)c3ccccc3)cc2)C(=O)N2CCC3(C2)OC(=O)Nc2ccc(Cl)cc23)cc1 (stereo partly drawn) [Example 39, methyl (4-(((2S)-3-(4-benzoylphenyl)-1-(6-chloro-2-oxo-1,2-dihydrospiro[benzo[d][1,3]oxazine-4,3′-pyrrolidin]-1′-yl)-1-oxopropan-2-yl)carbamoyl)phenyl)carbamate] |
| 42.5 | 17.7 | COC(=O)Nc1ccc(C(=O)N[C@@H](Cc2sccc2F)C(=O)N2CCC3(C2)OC(=O)Nc2ccc(Cl)cc23)cc1 (stereo partly drawn) [Example 43, methyl (4-(((2S)-1-(6-chloro-2-oxo-1,2-dihydrospiro[benzo[d][1,3]oxazine-4,3′-pyrrolidin]-1′-yl)-3-(3-fluorothiophen-2-yl)-1-oxopropan-2-yl)carbamoyl)phenyl)carbamate] |
| < 1.3 | 5.55 | COC(=O)Nc1ccc(C(=O)N[C@@H](Cc2ccc(C#N)cc2)C(=O)N2CCC[C@@]3(C2)OC(=O)Nc2ccc(Cl)cc23)cc1 [Example 45, methyl (4-(((S)-1-((R)-6-chloro-2-oxo-1,2-dihydrospiro[benzo[d][1,3]oxazine-4,3′-piperidin]-1′-yl)-3-(4-cyanophenyl)-1-oxopropan-2-yl)carbamoyl)phenyl)carbamate] |
| 92.8 | 17.6 | COC(=O)Nc1ccc(C(=O)N[C@@H](CCc2ccccc2)C(=O)N2CCC3(C2)OC(=O)Nc2ccc(Cl)cc23)cc1 (stereo partly drawn) [Example 52, methyl (4-(((2S)-1-(6-chloro-2-oxo-1,2-dihydrospiro[benzo[d][1,3]oxazine-4,3′-pyrrolidin]-1′-yl)-1-oxo-4-phenylbutan-2-yl)carbamoyl)phenyl)carbamate] |
| 1.43 | 4.9 | COC(=O)Nc1ccc(C(=O)N[C@@H](CCSC)C(=O)N2CCC[C@@]3(C2)OC(=O)Nc2ccc(Cl)cc23)cc1 [Example 57, methyl (4-(((S)-1-((R)-6-chloro-2-oxo-1,2-dihydrospiro[benzo[d][1,3]oxazine-4,3′-piperidin]-1′-yl)-4-(methylthio)-1-oxobutan-2-yl)carbamoyl)phenyl)carbamate] |
| < 1.36 | 4.04 | COC(=O)Nc1ccc(C(=O)N[C@@H](Cc2cscn2)C(=O)N2CCC[C@@]3(C2)OC(=O)Nc2ccc(Cl)cc23)cc1 [Example 58, methyl (4-(((S)-1-((R)-6-chloro-2-oxo-1,2-dihydrospiro[benzo[d][1,3]oxazine-4,3′-piperidin]-1′-yl)-1-oxo-3-(thiazol-4-yl)propan-2-yl)carbamoyl)phenyl)carbamate] |
| 3.31 | 48.9 | COC(=O)Nc1ccc(C(=O)N[C@@H](CC(C)C)C(=O)N2CCC[C@@]3(C2)OC(=O)Nc2ccc(Cl)cc23)cc1 [Example 60, methyl (4-(((S)-1-((R)-6-chloro-2-oxo-1,2-dihydrospiro[benzo[d][1,3]oxazine-4,3′-piperidin]-1′-yl)-4-methyl-1-oxopentan-2-yl)carbamoyl)phenyl)carbamate] |
